Earlier results, collected in US20240115695A1, “Method of Obtaining Betulin as an Adjuvant in a Vaccine Against Coronavirus SARS-COV-2” (BETUVAKS LIMITED LIABILITY COMPANY, priority 2020, published 2024).

What was measured:
[1] = in vivo

SMILES | LD50 [1] | MPC [1] | solubility of betulin
C1CCOC1 [THF, tetrahydrofuran] | 2300 mg/kg | 100 mg/m^3 | 
C=C(C)[C@@H]1CC[C@]2(CO)CC[C@]3(C)[C@H](CC[C@@H]4[C@@]5(C)CC[C@H](O)C(C)(C)[C@@H]5CC[C@]43C)[C@@H]12 [betulin] |  |  | less than 1 μg/mL
